In patent US20240174618A1, “SUBSTITUTED (2-HETEROARYLOXYPHENYL)SULFONATES, SALTS THEREOF AND THEIR USE AS HERBICIDAL AGENTS” (Bayer Aktiengesellschaft, priority 2021, published 2024):

Assays:
Type in all cases: in vivo
Stellaria media (STEME) [1] = experiment: B. Herbicidal post-emergence efficacy, STEME
In short: (§1)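 Weeds grown in sandy loam in greenhouse pots, sprayed at one-leaf stage (2–3 weeks after sowing) with WP or EC formulations as aqueous suspension/emulsion plus 0.5% additive at 600 L/ha water, rates up to 1280 g/ha. Visual efficacy rated about 3 weeks later versus untreated controls (0% = like control, 100% = dead).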

Poa annua (POAAN) = experiment: A. Herbicidal pre-emergence efficacy, POAAN
In short: (§2)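 Pre-emergence soil-surface spray in sandy loam pots, WP/EC in water plus 0.5% additive, 600 L/ha. Visual % damage rating after about 3 weeks in greenhouse vs. untreated; 0% = control-like, 100% = dead plants. Rates up to 1280 g/ha.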

Stellaria media (STEME) [2] = experiment: A. Herbicidal pre-emergence efficacy, STEME
In short: as §2

Setaria viridis (SETVI) = experiment: B. Herbicidal post-emergence efficacy, SETVI
In short: as §1

[3] = tested on: Amaranthus retroflexus (AMARE); experiment: A. Herbicidal pre-emergence efficacy, AMARE
In short: as §2

[4] = tested on: Abutilon theophrasti (ABUTH); experiment: C. Herbicidal pre-emergence efficacy, ABUTH; conditions: scored after about 3 weeks
Description: Seeds of monocotyledonous and dicotyledonous weed plants and crop plants were placed in plastic or organic planting pots and covered with soil. The compounds of the invention, formulated in the form of wettable powders (WP) or as emulsion concentrates (EC), were then applied to the surface of the covering soil as aqueous suspension or emulsion with addition of 0.5% additive at a water application rate equivalent to 600 l/ha (converted). After the treatment, the pots were placed in a greenhouse and kept under good growth conditions for the test plants. After about 3 weeks, the efficacy of the preparations was scored visually in comparison with untreated controls as percentages. For example, • 100% efficacy=plants have died, • 0% efficacy=like untreated control plants.
Tables C1a to C14b below show the effects of selected compounds of the general formula (I) according to table 1 on various harmful plants at an application rate corresponding to 320 g/ha or less, which were obtained by the experimental procedure mentioned above.

[5] = tested on: Amaranthus retroflexus (AMARE); experiment: C. Herbicidal pre-emergence efficacy, AMARE; conditions: scored after about 3 weeks
In short: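 Pre-emergence test: formulated compounds sprayed as aqueous suspension or emulsion with 0.5% additive at 600 l/ha onto soil covering sown seeds, at rates corresponding to 320 g/ha or less. After about 3 weeks in greenhouse, efficacy scored visually as percent versus untreated controls (100% = plants dead).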

[6] = tested on: Echinochloa crus-galli (ECHCG); experiment: E. Herbicidal post-emergence efficacy, ECHCG
In short: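 Greenhouse post-emergence spray, one-leaf stage (2–3 wk after sowing, sandy loam); WP/EC formulation, aqueous + 0.5% additive, 600 l/ha water; rates 320 g/ha or less. Visual rating ~3 wk later vs untreated; 0% = control-like, 100% = dead.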

Compound	Post-emergence efficacy against STEME (Stellaria media (STEME) [1]; 80 g/ha) [%]	Post-emergence efficacy against STEME (Stellaria media (STEME) [1]; 320 g/ha) [%]	Post-emergence efficacy against STEME (Stellaria media (STEME) [1]; 1280 g/ha) [%]	Pre-emergence efficacy against POAAN (Poa annua (POAAN); dosage 80 g/ha) [%]	Pre-emergence efficacy against POAAN (Poa annua (POAAN); dosage 320 g/ha) [%]	Pre-emergence efficacy against POAAN (Poa annua (POAAN); dosage 1280 g/ha) [%]	Pre-emergence efficacy against STEME (Stellaria media (STEME) [2]; dosage 80 g/ha) [%]	Pre-emergence efficacy against STEME (Stellaria media (STEME) [2]; dosage 320 g/ha) [%]	Pre-emergence efficacy against STEME (Stellaria media (STEME) [2]; dosage 1280 g/ha) [%]	Post-emergence efficacy against SETVI (Setaria viridis (SETVI); 320 g/ha) [%]	Post-emergence efficacy against SETVI (Setaria viridis (SETVI); 1280 g/ha) [%]	Pre-emergence efficacy against AMARE in % ([3]; 80 g/ha) [%]	Pre-emergence efficacy against AMARE in % ([3]; 320 g/ha) [%]	Pre-emergence efficacy against AMARE in % ([3]; 1280 g/ha) [%]	Pre-emergence efficacy against ABUTH ([4]; 80 g/ha) [%]	Pre-emergence efficacy against ABUTH ([4]; 320 g/ha) [%]	Pre-emergence efficacy against AMARE ([5]; 80 g/ha) [%]	Pre-emergence efficacy against AMARE ([5]; 320 g/ha) [%]	Post-emergence efficacy against ECHCG in % ([6]; application rate 80 g/ha) [%]	Post-emergence efficacy against ECHCG in % ([6]; application rate 320 g/ha) [%]
Cc1cccc(Oc2ncc(Cl)cn2)c1OS(=O)(=O)CCCC(F)(F)F [Example I-28, 2-[(5-Chloropyrimidin-2-yl)oxy]-6-methylphenyl 4,4,4-trifluorobutane-1-sulfonate]	90	100	100	90	100	100	90	100	100	90	90	100	100	100						
Cc1cccc(Oc2ncc(F)cn2)c1OS(=O)(=O)CCC(F)(F)F [Example I-45]	100	100	100	90	100	100	90	100	100			90	100	100	100	100	80	100		
O=S(=O)(CCCCl)Oc1cccc(F)c1Oc1ncc(Cl)cn1 [Example I-13]		90	100		90	100	100	100	100					100		90		100		
O=S(=O)(CCC(F)(F)F)Oc1c(Br)cccc1Oc1ncc(F)cn1 [Example I-43]		100	100		100	100		100	100			100	100	100	80	100	100	100		
O=S(=O)(CCCC(F)(F)F)Oc1c(Br)cccc1Oc1ncc(Cl)cn1 [Example I-30]	100	100	100	90	100	100	100	100	100			100	100	100						
O=S(=O)(CC1CC1(Cl)Cl)Oc1c(F)cccc1Oc1ncc(Cl)cn1 (stereo not drawn) [Example I-57]	90	90	90		100	100		100	100	90	90	100	100	100						
Cc1cccc(Oc2ncc(Cl)cn2)c1OS(=O)(=O)CCC(F)(F)F [Example I-29]	90	100	100	90	100	100	90	100	100	100	100	90	100	100						
O=S(=O)(CCC(F)=C(F)F)Oc1c(Cl)cccc1Oc1ncc(Cl)cn1 [Example I-73]	90	100	100		90	100		100	100		90	90	100	100		90	90	100		
O=S(=O)(CCl)Oc1ccccc1Oc1ncc(Cl)cn1 [Example I-9]			90		90	100		100	100		90	100	100	100			100	100		
N#Cc1cccc(Oc2ncc(Cl)cn2)c1OS(=O)(=O)CCCC(F)(F)F [Example I-81]																100	100	100	80	80
C=CCS(=O)(=O)Oc1ccccc1Oc1ncc(Cl)cn1 [Example I-36]			100			90			90		90		100	100		90		100		
O=S(=O)(CCC(F)=C(F)F)Oc1c(F)cccc1Oc1ncc(Cl)cn1 [Example I-70]															80	100	100	100	80	100
